Measurements published in ChEMBL document CHEMBL1201862, “PubChem BioAssay data set” (2004).
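Protocol summary: plate cells (96-well), add compound at 5 concentrations, incubate 48 h, interpolate endpoints linearly. At the GI50, growth is halved.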 Activity calls are given as the source filed them. Cut-off read from the data, not from the text of the source: active = GI50 up to about 1.1 µM and inactive = higher.

Key:
Test in all cases: DTP human tumour cell line panel, 48 h
[1] = system: CAKI-1
[2] = system: HCT-116
[3] = system: HCT-15
[4] = system: HOP-92
[5] = system: KM12
[6] = system: M14
[7] = system: MCF7
[8] = system: MDA-MB-231
[9] = system: MDA-MB-435
[10] = system: Malme-3M
[11] = system: NCI-H23
[12] = system: OVCAR-3
[13] = system: SNB-19
[14] = system: T47D
[15] = system: UACC-257
[16] = system: UACC-62
[17] = system: UO-31
[18] = system: A498
[19] = system: LOX IMVI

Clc1ccccc1CN1COc2c(cc(Cl)c3cccnc23)C1
GI50 [1]: 4.49 µM (inactive) | GI50 [2]: 3.64 µM (inactive) | GI50 [3]: 0.165 µM | GI50 [4]: 3.18 µM (inactive) | GI50 [5]: 3.03 µM (inactive) | GI50 [6]: 3.77 µM (inactive) | GI50 [7]: 4.94 µM (inactive) | GI50 [8]: 2.3 µM (inactive) | GI50 [9]: 6.19 µM (inactive) | GI50 [10]: 2.47 µM (inactive) | GI50 [11]: 3.38 µM (inactive) | GI50 [12]: 6.59 µM (inactive) | GI50 [13]: 4.35 µM (inactive) | GI50 [14]: 6.05 µM (inactive) | GI50 [15]: 3.43 µM (inactive) | GI50 [16]: 1.52 µM (inactive) | GI50 [17]: 2.89 µM (inactive)

O=C1CC(S(=O)(=O)O)C=C1Nc1cccc(Cl)c1 (configuration not stated)
GI50 [18]: > 100 µM (inactive) | GI50 [1]: > 100 µM (inactive) | GI50 [2]: > 100 µM (inactive) | GI50 [4]: > 100 µM (inactive) | GI50 [5]: > 100 µM (inactive) | GI50 [19]: > 100 µM (inactive) | GI50 [6]: > 100 µM (inactive) | GI50 [10]: > 100 µM (inactive) | GI50 [11]: > 100 µM (inactive) | GI50 [12]: > 100 µM (inactive) | GI50 [13]: > 100 µM (inactive) | GI50 [15]: > 100 µM (inactive) | GI50 [16]: > 100 µM (inactive) | GI50 [17]: > 100 µM (inactive)

COC(=O)c1c2c(c(-c3ccccc3)c3c1-c1nc(Cl)ccc1CC3)CCc1ccc(Cl)nc1-2
GI50 [18]: > 100 µM (inactive) | GI50 [1]: > 100 µM (inactive) | GI50 [2]: 77.6 µM (inactive) | GI50 [3]: > 100 µM | GI50 [4]: 42.2 µM (inactive) | GI50 [5]: > 100 µM (inactive) | GI50 [19]: > 100 µM (inactive) | GI50 [6]: > 100 µM (inactive) | GI50 [10]: > 100 µM (inactive) | GI50 [11]: > 100 µM (inactive) | GI50 [12]: > 100 µM (inactive) | GI50 [13]: 64 µM (inactive) | GI50 [15]: > 100 µM (inactive) | GI50 [16]: 71.6 µM (inactive) | GI50 [17]: > 100 µM (inactive)

CN(C)NC(=S)NC12CC3CC(CC(C3)C1)C2
GI50 [18]: > 100 µM (inactive) | GI50 [1]: > 100 µM (inactive) | GI50 [2]: > 100 µM (inactive) | GI50 [3]: > 100 µM | GI50 [4]: 91.2 µM (inactive) | GI50 [5]: > 100 µM (inactive) | GI50 [19]: > 100 µM (inactive) | GI50 [6]: > 100 µM (inactive) | GI50 [10]: > 100 µM (inactive) | GI50 [11]: > 100 µM (inactive) | GI50 [12]: > 100 µM (inactive) | GI50 [13]: > 100 µM (inactive) | GI50 [15]: > 100 µM (inactive) | GI50 [16]: > 100 µM (inactive) | GI50 [17]: > 100 µM (inactive)

C[C@@H]1C(=O)O[C@@H]2C[C@@]1(C)[C@@H]1C(=O)C3(O)OC14C2(C)OC(=O)[C@@]4(O)CCC1C3C(O)C=C2CC=CC(=O)[C@@]21C (some centres not stated)
GI50 [1]: 21.3 µM (inactive) | GI50 [2]: 20.7 µM (inactive) | GI50 [3]: 34.4 µM | GI50 [5]: 26.6 µM (inactive) | GI50 [6]: 21.6 µM (inactive) | GI50 [7]: 36.3 µM (inactive) | GI50 [8]: 28.8 µM (inactive) | GI50 [9]: 20.4 µM (inactive) | GI50 [13]: 3.24 µM (inactive) | GI50 [14]: 31.3 µM (inactive) | GI50 [15]: 31 µM (inactive) | GI50 [16]: 22 µM (inactive) | GI50 [17]: 22.5 µM (inactive)

COc1cc2cc3c4c(cc(OC)c(OC)c4c2cc1OC)CCN3C(=O)OCCN1CCNCC1
GI50 [18]: 14.6 µM (inactive) | GI50 [1]: 15 µM (inactive) | GI50 [2]: 11.9 µM (inactive) | GI50 [3]: 15.5 µM | GI50 [4]: 12.9 µM (inactive) | GI50 [5]: 15.1 µM (inactive) | GI50 [19]: 13.7 µM (inactive) | GI50 [6]: 14.7 µM (inactive) | GI50 [10]: 17.3 µM (inactive) | GI50 [11]: 17.4 µM (inactive) | GI50 [12]: 15.3 µM (inactive) | GI50 [13]: 21.9 µM (inactive) | GI50 [15]: 14.9 µM (inactive) | GI50 [16]: 14.9 µM (inactive) | GI50 [17]: 14.9 µM (inactive)

CC(=O)N(N=O)c1ccc(N(N=O)C(C)=O)cc1
GI50 [18]: > 100 µM (inactive) | GI50 [1]: > 100 µM (inactive) | GI50 [2]: > 100 µM (inactive) | GI50 [3]: > 100 µM | GI50 [4]: > 100 µM (inactive) | GI50 [19]: > 100 µM (inactive) | GI50 [6]: > 100 µM (inactive) | GI50 [10]: > 100 µM (inactive) | GI50 [11]: > 100 µM (inactive) | GI50 [12]: > 100 µM (inactive) | GI50 [13]: > 100 µM (inactive) | GI50 [16]: > 100 µM (inactive) | GI50 [17]: > 100 µM (inactive)
